According to PubChem BioAssay (NCI):
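Interpolation was linear, between the two tested concentrations surrounding the appropriate level; five concentrations were tested over 48 hours in 96-well plates. TGI is the concentration that stops growth completely.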

Experiments:
Assay in all cases: NCI-60 cell line screen, 48 h
SNB-19 CNS = system: SNB-19 CNS
CAKI-1 renal = system: CAKI-1 renal
MCF7 breast = system: MCF7 breast
SK-MEL-5 melanoma = system: SK-MEL-5 melanoma
A498 renal = system: A498 renal
SN12C renal = system: SN12C renal
UO-31 renal = system: UO-31 renal
PC-3 prostate = system: PC-3 prostate
M14 melanoma = system: M14 melanoma
K-562 leukemia = system: K-562 leukemia
SK-OV-3 ovarian = system: SK-OV-3 ovarian
MOLT-4 leukemia = system: MOLT-4 leukemia
NCI-H226 lung = system: NCI-H226 lung
IGROV1 ovarian = system: IGROV1 ovarian
MALME-3M melanoma = system: MALME-3M melanoma
HCC-2998 colon = system: HCC-2998 colon
MDA-N = system: MDA-N
HS 578T breast = system: HS 578T breast
SF-539 CNS = system: SF-539 CNS
UACC-257 melanoma = system: UACC-257 melanoma
SR leukemia = system: SR leukemia
HCT-15 colon = system: HCT-15 colon
OVCAR-3 ovarian = system: OVCAR-3 ovarian
OVCAR-8 ovarian = system: OVCAR-8 ovarian
SW-620 colon = system: SW-620 colon
COLO 205 colon = system: COLO 205 colon
HOP-62 NSCLC = system: HOP-62 NSCLC
786-0 renal = system: 786-0 renal
HCT-116 colon = system: HCT-116 colon
SK-MEL-2 melanoma = system: SK-MEL-2 melanoma
CCRF-CEM leukemia = system: CCRF-CEM leukemia
OVCAR-5 ovarian = system: OVCAR-5 ovarian
A549 NSCLC = system: A549 NSCLC
HL-60(TB) leukemia = system: HL-60(TB) leukemia
ACHN renal = system: ACHN renal
HT29 colon = system: HT29 colon
U251 CNS = system: U251 CNS
SNB-75 CNS = system: SNB-75 CNS
NCI-H460 lung = system: NCI-H460 lung
NCI-H23 lung = system: NCI-H23 lung
NCI/ADR-RES ovarian = system: NCI/ADR-RES ovarian
KM12 colon = system: KM12 colon
BT-549 breast = system: BT-549 breast
SF-295 CNS = system: SF-295 CNS
TK-10 renal = system: TK-10 renal
MDA-MB-231 breast = system: MDA-MB-231 breast
MDA-MB-435 = system: MDA-MB-435
DU-145 prostate = system: DU-145 prostate
SK-MEL-28 melanoma = system: SK-MEL-28 melanoma
UACC-62 melanoma = system: UACC-62 melanoma
T-47D breast = system: T-47D breast
SF-268 CNS = system: SF-268 CNS
NCI-H522 lung = system: NCI-H522 lung
OVCAR-4 ovarian = system: OVCAR-4 ovarian
HOP-92 NSCLC = system: HOP-92 NSCLC
EKVX NSCLC = system: EKVX NSCLC
RPMI-8226 leukemia = system: RPMI-8226 leukemia
LOX IMVI melanoma = system: LOX IMVI melanoma
RXF 393 renal = system: RXF 393 renal

Measured: TGI

CN(C)CCNC(=O)c1cccc(C(=O)Nc2ccccc2)c1[N+](=O)[O-]
not listed: OVCAR-4 ovarian | HOP-92 NSCLC | EKVX NSCLC | RPMI-8226 leukemia | LOX IMVI melanoma | RXF 393 renal
> 100 µM: all other assays above

O=S(=O)(/N=S(/Nc1ccccc1)C(Cl)Cl)c1ccccc1 (configuration not stated)
not listed: CAKI-1 renal | SK-MEL-5 melanoma | A498 renal | HCC-2998 colon | SR leukemia | NCI-H522 lung
> 100 µM: all other assays above

CC(=O)NC1C(OCc2ccccc2)OC(CO)C(O)C1OC(C)C(=O)NC(C(=O)NC(CCC(=O)NCCCC(=O)Nc1ccc2c(c1)CN1C(=O)c3ccccc3C1=N2)C(N)=O)C(C)C (configuration not stated)
not listed: NCI-H226 lung | OVCAR-8 ovarian | NCI-H522 lung
> 100 µM: all other assays above
